Measured values published in ChEMBL document CHEMBL1130635, “4-Phenyl-4-oxo-butanoic acid derivatives inhibitors of kynurenine 3-hydroxylase” (Bioorg Med Chem Lett, 1998).

Experiments:
[1] = molecular target: T1, Kynurenine 3-monooxygenase (Rattus norvegicus, UniProt O88867); assay: Inhibition of rat brain KYN 3-OHase.
[2] = molecular target: T1, Kynurenine 3-monooxygenase; assay: Inhibition of rat liver KYN 3-OHase.
[3] = molecular target: Kynurenine 3-monooxygenase (Rattus norvegicus) (UniProt O88867); assay: Inhibition of rat liver KYN 3-OHase at 100 uM concentration
FMO [4] = molecular target: T2, FMO (Mus musculus, UniProt Q64133+Q8BW75); assay: Compound was evaluated for inhibition of FMO. at 100 uM; assay type: protein assay
T2 sequence (Q8BW75 whole entry): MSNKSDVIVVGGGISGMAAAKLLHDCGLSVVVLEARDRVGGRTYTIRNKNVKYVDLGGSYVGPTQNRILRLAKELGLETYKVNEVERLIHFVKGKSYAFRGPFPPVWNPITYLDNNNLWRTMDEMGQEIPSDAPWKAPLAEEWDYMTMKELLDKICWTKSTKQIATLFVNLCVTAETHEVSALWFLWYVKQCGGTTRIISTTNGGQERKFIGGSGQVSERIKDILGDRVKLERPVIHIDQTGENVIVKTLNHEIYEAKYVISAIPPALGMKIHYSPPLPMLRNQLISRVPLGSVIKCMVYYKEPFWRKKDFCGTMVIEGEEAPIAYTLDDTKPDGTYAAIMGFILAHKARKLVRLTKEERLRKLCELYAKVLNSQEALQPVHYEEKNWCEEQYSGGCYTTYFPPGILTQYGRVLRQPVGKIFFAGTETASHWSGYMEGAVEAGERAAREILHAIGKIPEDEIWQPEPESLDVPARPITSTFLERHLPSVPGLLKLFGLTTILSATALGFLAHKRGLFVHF
T2 sequence (Q64133 whole entry): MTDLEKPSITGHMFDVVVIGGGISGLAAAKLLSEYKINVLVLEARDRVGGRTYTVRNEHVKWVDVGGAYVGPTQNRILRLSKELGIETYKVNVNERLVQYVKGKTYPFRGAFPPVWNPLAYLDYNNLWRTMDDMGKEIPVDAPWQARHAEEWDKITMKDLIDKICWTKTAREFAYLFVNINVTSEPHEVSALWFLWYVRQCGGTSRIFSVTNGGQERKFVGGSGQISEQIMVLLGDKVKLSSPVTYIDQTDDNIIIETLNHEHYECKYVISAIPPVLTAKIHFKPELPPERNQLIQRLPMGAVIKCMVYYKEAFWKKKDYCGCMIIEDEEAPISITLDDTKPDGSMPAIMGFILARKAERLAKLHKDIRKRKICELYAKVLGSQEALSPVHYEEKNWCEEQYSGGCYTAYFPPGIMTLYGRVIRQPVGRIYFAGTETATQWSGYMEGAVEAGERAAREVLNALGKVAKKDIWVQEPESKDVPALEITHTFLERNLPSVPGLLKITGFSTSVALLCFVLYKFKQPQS

[5] = molecular target: T3, Kynureninase (Rattus norvegicus) (UniProt P70712); assay: Compound was evaluated for inhibition of rat liver KYN ase at 100 uM
T3 sequence (whole entry): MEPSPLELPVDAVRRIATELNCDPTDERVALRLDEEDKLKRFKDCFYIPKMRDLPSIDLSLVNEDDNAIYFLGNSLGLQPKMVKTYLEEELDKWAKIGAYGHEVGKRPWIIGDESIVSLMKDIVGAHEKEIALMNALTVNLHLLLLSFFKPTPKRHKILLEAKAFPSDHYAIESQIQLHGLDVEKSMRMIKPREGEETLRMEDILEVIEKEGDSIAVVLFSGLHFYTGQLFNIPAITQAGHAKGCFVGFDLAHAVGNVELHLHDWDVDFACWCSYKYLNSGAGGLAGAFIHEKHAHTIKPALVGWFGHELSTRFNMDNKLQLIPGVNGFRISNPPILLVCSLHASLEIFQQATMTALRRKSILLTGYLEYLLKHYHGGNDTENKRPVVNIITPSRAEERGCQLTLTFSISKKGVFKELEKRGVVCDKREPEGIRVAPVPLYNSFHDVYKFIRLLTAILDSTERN

[6] = molecular target: Kynurenine/alpha-aminoadipate aminotransferase, mitochondrial (Rattus norvegicus) (UniProt Q64602); assay: Compound was evaluated for inhibition of rat liver KAT at 100 uM
[7] = molecular target: T1, Kynurenine 3-monooxygenase; assay: Compound was evaluated for the inhibition of rat liver KYN 3-OHase
Pseudomonas fluorescens [8] = assay: Compound was evaluated for inhibition of PHBH. at 100 uM
[9] = molecular target: T3, Kynureninase (Rattus norvegicus); assay: Compound was evaluated for inhibition of rat liver KYN ase at 100 uM concentration
[10] = molecular target: Kynurenine/alpha-aminoadipate aminotransferase, mitochondrial (Rattus norvegicus) (UniProt Q64602); assay: Compound was evaluated for inhibition of rat liver KAT at 100 uM concentration.
Pseudomonas fluorescens [11] = assay: Compound was evaluated for inhibition of PHBH at 100 uM concentration
FMO [12] = molecular target: T2, FMO; assay: Compound was evaluated for inhibition of FMO at 100 uM concentration; assay type: protein assay
[13] = molecular target: Kynurenine/alpha-aminoadipate aminotransferase, mitochondrial (Rattus norvegicus) (UniProt Q64602); assay: Compound was evaluated for inhibition of rat liver KAT at 100 uM concentration

T1 sequence (O88867 whole entry): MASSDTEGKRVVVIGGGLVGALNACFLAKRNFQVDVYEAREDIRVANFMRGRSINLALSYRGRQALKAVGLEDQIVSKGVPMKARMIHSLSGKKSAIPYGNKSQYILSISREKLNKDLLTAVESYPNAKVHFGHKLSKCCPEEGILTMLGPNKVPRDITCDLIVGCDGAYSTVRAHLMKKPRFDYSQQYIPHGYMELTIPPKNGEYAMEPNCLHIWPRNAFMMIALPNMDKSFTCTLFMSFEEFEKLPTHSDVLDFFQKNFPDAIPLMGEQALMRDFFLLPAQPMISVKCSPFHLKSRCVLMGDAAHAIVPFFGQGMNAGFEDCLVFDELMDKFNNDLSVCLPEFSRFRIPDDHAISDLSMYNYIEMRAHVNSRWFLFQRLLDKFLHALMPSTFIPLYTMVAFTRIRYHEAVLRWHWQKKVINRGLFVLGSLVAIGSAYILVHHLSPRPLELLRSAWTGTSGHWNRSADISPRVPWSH
Chain of Kynurenine 3-monooxygenase (Rattus norvegicus) (O88867 whole entry, looked up): as the sequence (O88867 whole entry) above
Chain of Kynurenine/alpha-aminoadipate aminotransferase, mitochondrial (Rattus norvegicus) (Q64602 30-425 limits assumed): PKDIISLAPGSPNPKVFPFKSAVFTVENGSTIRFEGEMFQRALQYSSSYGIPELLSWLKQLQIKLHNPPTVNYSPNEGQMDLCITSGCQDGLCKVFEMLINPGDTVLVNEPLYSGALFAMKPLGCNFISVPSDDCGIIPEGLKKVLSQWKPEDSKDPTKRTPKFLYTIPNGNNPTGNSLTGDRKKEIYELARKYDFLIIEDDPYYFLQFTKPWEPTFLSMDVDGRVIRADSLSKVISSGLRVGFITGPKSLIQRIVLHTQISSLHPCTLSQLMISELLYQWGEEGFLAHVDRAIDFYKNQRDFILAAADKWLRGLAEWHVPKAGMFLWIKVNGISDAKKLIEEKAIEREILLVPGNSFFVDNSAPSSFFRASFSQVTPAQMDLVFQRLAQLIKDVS

Row | SMILES | IC50 [1] [nM] | IC50 [2] [nM] | inhibition [3] [%] | also measured
1 | O=C(O)C(=O)/C=C(\O)c1ccc(F)c(F)c1 | 440 | 1200 | – | –
2 | CC(O)(CC(=O)c1ccc(Cl)c(Cl)c1)C(=O)O (centres undefined) | – | – | 43 | –
3 | O=C(CC(O)C(=O)O)c1cccc(Cl)c1 (centres undefined) | 480 | 1100 | – | –
4 | COc1ccc(C(=O)CC(O)C(=O)O)cc1 (centres undefined) | – | – | 7 | –
5 | O=C(CC(Cl)C(=O)O)c1ccc(Cl)c(Cl)c1 (centres undefined) | 2200 | 14800 | – | –
6 | O=C(CC1(C(=O)O)CC1)c1ccc(Cl)c(Cl)c1 | – | – | 20 | –
7 | O=C(O)C(=O)/C=C(\O)c1ccc(Cl)c(Cl)c1 | 950 | 6400 | – | –
8 | C/C(=C\C(=O)c1ccc(Cl)c(Cl)c1)C(=O)O | 2200 | 11300 | – | –
9 | NC(CC(=O)c1ccc(Cl)c(Cl)c1)C(=O)O (centres undefined) | – | – | – | inhibition at 100 µM (FMO [4]): 8.5%; inhibition [5]: 10%; inhibition [6]: 14%; IC50 [7]: 330 nM; inhibition (Pseudomonas fluorescens [8]): 2%
10 | CC(N)(CC(=O)c1ccc(Cl)c(Cl)c1)C(=O)O (centres undefined) | – | – | 35 | –
11 | O=C(CC(C(=O)O)c1ccccc1)c1ccc(Cl)c(Cl)c1 (centres undefined) | – | 19500 | – | –
12 | CC(C)(CC(=O)c1ccc(Cl)c(Cl)c1)C(=O)O | – | – | 21 | –
13 | NCCC(=O)c1ccc(Cl)c(Cl)c1 | – | – | 2 | –
14 | O=C(CC(O)C(=O)O)c1ccc(Cl)c(Cl)c1 (centres undefined) | – | – | – | inhibition [9]: 0%; inhibition [10]: 23%; inhibition (Pseudomonas fluorescens [11]): 29%
15 | O=C(CC(Cc1ccccc1)C(=O)O)c1ccc(Cl)c(Cl)c1 (centres undefined) | – | – | – | inhibition at 100 µM (FMO [12]): 16%; inhibition [9]: 0%; inhibition [13]: 8%; inhibition (Pseudomonas fluorescens [11]): 8%
